Consider seven compounds from ChEMBL document CHEMBL4387785, “Discovery of a C-8 hydroxychromene as a potent degrader of estrogen receptor alpha with improved rat oral exposure over GDC-0927” (Bioorg Med Chem Lett, 2019).

Series [1] is described as follows: in vitro. The conditions noted are these: human, liver microsomes.
A short description of series [2]: in vitro. The conditions noted are these: rat, liver microsomes. Background: Microsomes from liver hold many membrane-bound enzymes, among them those of drug oxidation.
A short description of series [3]: in vitro. The settings on record: human, hepatocytes.
Series [4] is described as follows: in vitro. The settings on record: rat, hepatocytes.
The nature of series [5]: Dose normalized AUC in rat at 5 mg/kg, po administered as suspension. The settings on record: in vivo. The series is classed as ADME, organism-based.
Series [6] is described as follows: in vivo. The settings on record: rat, iv, 1 mg/kg.
The nature of series [7]: in vivo. The conditions noted are these: rat, po, 5 mg/kg.
Series [8] in a line: in vitro. The settings on record: dog, MDCK.
Series [9] can be described thus: Oral bioavailability in rat at 1 mg/kg administered as suspension. The class given is ADME, organism-based. The settings on record: in vivo.
Series [10] can be described thus: Dose normalized AUC in rat at 1 mg/kg, po administered as suspension. The class given is ADME, organism-based. The settings on record: in vivo.

For `CC1=C(c2ccc(F)cc2)[C@H](c2ccc(OCCN3CC(CF)C3)cc2)Oc2ccc(O)cc21`, the CLhep predicted was 10 mL/min/kg in “in vitro [1]”, 28 mL/min/kg in “in vitro [2]”, 14 mL/min/kg in “in vitro [3]” and 31 mL/min/kg in the series “in vitro [4]”.
For the compound `CC1=C(c2cccc(O)c2)[C@H](c2ccc(OCCN3CC(CF)C3)cc2)Oc2ccc(O)cc21`, in [5], the AUC/dose was 0.04 µM·h. The clearance in “in vivo [6]” was 100 mL/min/kg. Besides, the bioavailability in “in vivo [7]” is 10%. The CLhep predicted in “in vitro [1]” was 12 mL/min/kg; in “in vitro [2]”, 45 to 46 mL/min/kg; in “in vitro [3]”, 16 mL/min/kg; in the series “in vitro [4]”, 45 to 46 mL/min/kg. The compound further came in with a Papp A→B in the series “in vitro [8]” of 4.6 ×10⁻⁶ cm/s.
With `CC1=C(c2cccc(O)c2)[C@H](c2ccc(OCCN3CC(CF)C3)cc2)Oc2c(O)cccc21`, in series [9], the bioavailability was 30%. The AUC/dose in [10] was determined as 0.43 µM·h. Also, the clearance in “in vivo [6]” came out at 18 mL/min/kg. Also, the CLhep predicted is 9 mL/min/kg in the series “in vitro [1]”, 43 mL/min/kg in the series “in vitro [2]”, 13 mL/min/kg in “in vitro [3]” and 44 mL/min/kg in the series “in vitro [4]”. This compound yielded a Papp A→B in the series “in vitro [8]” of 2.4 ×10⁻⁶ cm/s.
Consider `CC1=C(c2ccc(F)cc2)[C@H](c2ccc(OCCN3CC(CF)C3)cc2)Oc2c(O)cccc21`, for which the CLhep predicted in the series “in vitro [1]” was 9 mL/min/kg; in “in vitro [2]”, 27 mL/min/kg.
As to `CC1=C(c2ccc(F)cc2)[C@H](c2ccc(OCCN3CC(CF)C3)cc2)Oc2cc(F)c(O)cc21`, the CLhep predicted in “in vitro [1]” was 8 mL/min/kg; in the series “in vitro [2]”, 20 mL/min/kg; in the series “in vitro [3]”, 15 mL/min/kg; in the series “in vitro [4]”, 28 mL/min/kg.
Take `Oc1cccc(C2=Cc3cc(O)ccc3O[C@H]2c2ccc(OCCN3CC(CF)C3)cc2)c1`: the CLhep predicted in the series “in vitro [1]” was 12 mL/min/kg; in the series “in vitro [2]”, 36 mL/min/kg; in “in vitro [3]”, 17 mL/min/kg; in “in vitro [4]”, 41 mL/min/kg.
With `CCC1=C(c2cccc(O)c2)[C@H](c2ccc(OCCN3CC(CF)C3)cc2)Oc2ccc(O)cc21`, the CLhep predicted was 12 mL/min/kg in the series “in vitro [1]”, 39 mL/min/kg in “in vitro [2]”, 15 mL/min/kg in “in vitro [3]” and 40 mL/min/kg in “in vitro [4]”.

For orientation: clearance means the volume of plasma or blood freed of the substance per unit of time. Low values mean a low capacity for elimination, high ones a high capacity for elimination. By bioavailability is commonly meant the share of a dose that reaches the circulation, judged against a reference dose that is usually intravenous. Low values mean poor availability, high ones good availability. In general, Papp A→B refers to how fast a substance crosses the layer from the apical side. A high value points to ready permeation.
